Experimental data: ChEMBL document CHEMBL1629647, “Preclinical evaluation of GS-9160, a novel inhibitor of human immunodeficiency virus type 1 integrase” (Antimicrob Agents Chemother, 2009)

Assays:
[1] = tested on: Human immunodeficiency virus 1; assay: Selectivity ratio of EC50 for antiviral activity against HIV1 harboring E92V, G140S and V151A mutation in catalytic core domain of integrase to EC50 for antiviral activity against wild-type HIV1 3B; format: functional
[2] = tested on: Human immunodeficiency virus 1; assay: Selectivity ratio of EC50 for antiviral activity against GS-9160-resistant HIV1 selected after 6 passages to EC50 for antiviral activity against wild-type HIV1 3B; format: functional
[3] = tested on: Human immunodeficiency virus 1; assay: Antiviral activity against 0.04 MOI HIV1 3B infected in human MT-2 cells by […] dilution method in presence of 100% human serum; settings: Human immunodeficiency virus 1, 3B, MT2
[4] = tested on: Human immunodeficiency virus 1; assay: Selectivity ratio of EC50 for antiviral activity against EFV-resistant HIV1 selected after 3 passages to EC50 for antiviral activity against wild-type HIV1 3B; format: functional
[5] = tested on: Human immunodeficiency virus 1; assay: Selectivity ratio of EC50 for antiviral activity against HIV1 harboring L74M mutation in catalytic core domain of integrase to EC50 for antiviral activity against wild-type HIV1 3B; format: functional
[6] = tested on: Human immunodeficiency virus 1; assay: Selectivity ratio of EC50 for antiviral activity against 3TC-resistant HIV1 selected after 4 passages to EC50 for antiviral activity against wild-type HIV1 3B; format: functional
[7] = tested on: Human immunodeficiency virus 1; assay: Selectivity ratio of EC50 for antiviral activity against HIV1 harboring N155H mutation in catalytic core domain of integrase to EC50 for antiviral activity against wild-type HIV1 3B; format: functional
[8] = tested on: Human immunodeficiency virus 1; assay: Selectivity ratio of EC50 for antiviral activity against GS-9160-resistant HIV1 selected after 9 passages to EC50 for antiviral activity against wild-type HIV1 3B; format: functional
[9] = tested on: Human immunodeficiency virus 1; assay: Selectivity ratio of EC50 for antiviral activity against HIV1 harboring T66I mutation in catalytic core domain of integrase to EC50 for antiviral activity against wild-type HIV1 3B; format: functional
[10] = tested on: Human immunodeficiency virus 1; assay: Antiviral activity against 0.02 MOI HIV1 3B infected in human MT-2 cells by two fold dilution method in presence of 100% human serum; format: functional, organism-based; settings: Human immunodeficiency virus 1, 3B, MT2
[11] = Cytotoxicity against human SupT1 cells infected with HIV1 3B; format: cell-based, SUP-T1; settings: SupT1 cells infected with HIV-1 3B
in vitro = settings: human, MT4 cells
Description: Selectivity index, ratio of CC50 for human MT4 cells to EC50 for HIV1 3B in presence of 10% FBS

[12] = tested on: Human immunodeficiency virus 1; assay: Selectivity ratio of EC50 for antiviral activity against NNRTI-resistant HIV1 harboring RTY181C mutant gene to EC50 for antiviral activity against wild-type HIV1 3B; format: functional
[13] = Cytotoxicity against human T lymphocyte cells uninfected by XTT method in presence of 10% FBS
[14] = Cytotoxicity against human MT4 cells infected with HIV1 3B by three fold dilution method in presence of 10% FBS; format: cell-based; settings: MT4 cells infected with HIV-1 3B
[15] = tested on: Human immunodeficiency virus 1; assay: Antiviral activity against HIV1 infected in SupT1 cells assessed as accumulation of late RT products after 12 hrs; format: functional, organism-based; settings: Human immunodeficiency virus 1, SUP-T1, 12 h
[16] = target: Human immunodeficiency virus type 1 integrase (Human immunodeficiency virus 1, UniProt Q7ZJM1); assay: Inhibition of HIV1 integrase strand transfer activity
[17] = tested on: Human immunodeficiency virus 1; assay: Selectivity ratio of EC50 for antiviral activity against 3TC-resistant HIV1 selected after 8 passages to EC50 for antiviral activity against wild-type HIV1 3B; format: functional
[18] = tested on: Human immunodeficiency virus 1; assay: Selectivity ratio of EC50 for antiviral activity against APV-resistant HIV1 selected after 2 passages to EC50 for antiviral activity against wild-type HIV1 3B; format: functional
[19] = tested on: Human immunodeficiency virus 1; assay: Antiviral activity against HIV1 3B infected in human MT-2 cells by two fold dilution method in presence of 10% FBS; format: functional, organism-based; settings: Human immunodeficiency virus 1, 3B, MT2
[20] = tested on: Human immunodeficiency virus 1; assay: Antiviral activity against 0.001 MOI HIV1 BAL infected in human T lymphocyte cells by p24 antigen ELISA in presence of 10% FBS; format: functional, organism-based; settings: Human immunodeficiency virus 1, BAL
[21] = tested on: Human immunodeficiency virus 1; assay: Selectivity ratio of EC50 for antiviral activity against NRTI-resistant HIV1 harboring RTK65R mutant gene to EC50 for antiviral activity against wild-type HIV1 3B; format: functional
[22] = tested on: Human immunodeficiency virus 1; assay: Selectivity ratio of EC50 for antiviral activity against NRTI-resistant HIV1 harboring RTM184V mutant gene to EC50 for antiviral activity against wild-type HIV1 3B; format: functional
[23] = tested on: Human immunodeficiency virus 1; assay: Antiviral activity against HIV1 3B infected in SupT1 cells assessed as fold increase in viral 2-LTR circles accumulation after […] postinfection by TaqMan real-time PCR; format: functional, SUP-T1
[24] = tested on: Human immunodeficiency virus 1; assay: Antiviral activity against HIV1 infected in SupT1 cells assessed as accumulation of integrated junction products after 48 hrs by Alu-PCR assay; format: functional, organism-based; settings: Human immunodeficiency virus 1, SUP-T1, 48 h
[25] = tested on: Human immunodeficiency virus 1; assay: Selectivity ratio of EC50 for antiviral activity against PI-resistant HIV1 harboring […], L90M mutant gene to EC50 for antiviral activity against wild-type HIV1 3B; format: functional
[26] = Cytotoxicity against human uninfected MT2 cells by three fold dilution method in presence of 10% FBS
[27] = tested on: Human immunodeficiency virus 1; assay: Antiviral activity against HIV1 3B infected in human MT-2 cells by two fold dilution method in presence of 10% FBS, HSA and alpha1-AGP; format: functional, organism-based; settings: Human immunodeficiency virus 1, 3B, MT2
[28] = tested on: Human immunodeficiency virus 1; assay: Selectivity ratio of EC50 for antiviral activity against NRTI-resistant HIV1 harboring RT-6TAMs mutant gene to EC50 for antiviral activity against wild-type HIV1 3B; format: functional
[29] = tested on: Human immunodeficiency virus 1; assay: Selectivity ratio of EC50 for antiviral activity against HIV1 harboring E138K mutation in catalytic core domain of integrase to EC50 for antiviral activity against wild-type HIV1 3B; format: functional
[30] = tested on: Human immunodeficiency virus 1; assay: Selectivity ratio of EC50 for antiviral activity against HIV1 harboring E138K and Q148K mutation in catalytic core domain of integrase to EC50 for antiviral activity against wild-type HIV1 3B; format: functional
[31] = tested on: Human immunodeficiency virus 1; assay: Antiviral activity against 0.01 MOI HIV1 3B infected in human MT-2 cells by two fold dilution method in presence of 100% human serum; format: functional, organism-based; settings: Human immunodeficiency virus 1, 3B, MT2
[32] = tested on: Human immunodeficiency virus 1; assay: Selectivity ratio of EC50 for antiviral activity against HIV1 harboring N155S mutation in catalytic core domain of integrase to EC50 for antiviral activity against wild-type HIV1 3B; format: functional
[33] = tested on: Human immunodeficiency virus 1; assay: Selectivity ratio of EC50 for antiviral activity against HIV1 harboring E92Q mutation in catalytic core domain of integrase to EC50 for antiviral activity against wild-type HIV1 3B; format: functional
[34] = tested on: Human immunodeficiency virus 1; assay: Selectivity ratio of EC50 for antiviral activity against HIV1 harboring V151A mutation in catalytic core domain of integrase to EC50 for antiviral activity against wild-type HIV1 3B; format: functional
[35] = tested on: Human immunodeficiency virus 1; assay: Selectivity ratio of EC50 for antiviral activity against HIV1 harboring E92V and V151A mutation in catalytic core domain of integrase to EC50 for antiviral activity against wild-type HIV1 3B; format: functional
[36] = tested on: Human immunodeficiency virus 1; assay: Selectivity ratio of EC50 for antiviral activity against HIV1 harboring L74M and E92V mutation in catalytic core domain of integrase to EC50 for antiviral activity against wild-type HIV1 3B; format: functional
[37] = tested on: Human immunodeficiency virus 1; assay: Selectivity ratio of EC50 for antiviral activity against PI-resistant HIV1 harboring […], V82A and L90M mutant gene to EC50 for antiviral activity against wild-type HIV1 3B; format: functional

Sequence of Human immunodeficiency virus type 1 integrase (Q7ZJM1 whole entry): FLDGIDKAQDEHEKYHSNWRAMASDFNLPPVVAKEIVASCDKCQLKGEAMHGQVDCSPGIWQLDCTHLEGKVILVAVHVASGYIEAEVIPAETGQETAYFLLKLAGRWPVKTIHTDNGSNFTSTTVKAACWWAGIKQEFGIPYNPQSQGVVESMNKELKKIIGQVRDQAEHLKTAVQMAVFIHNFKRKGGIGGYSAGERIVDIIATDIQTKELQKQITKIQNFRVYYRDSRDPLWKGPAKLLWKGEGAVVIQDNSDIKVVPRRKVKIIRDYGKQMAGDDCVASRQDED

SMILES	Ratio EC50 [1]	Ratio EC50 [2]	EC50 [3]	Ratio EC50 [4]	Ratio EC50 [5]	Ratio EC50 [6]	Ratio EC50 [7]	Ratio EC50 [8]	Ratio EC50 [9]	EC50 [10]	CC50 [11]	selectivity ratio (in vitro)	Ratio EC50 [12]	CC50 [13]	CC50 [14]	EC50 [15]	IC50 [16]	Ratio EC50 [17]	Ratio EC50 [18]	EC50 [19]	further results
O=C(NCc1ccc(F)cc1)c1nc(N2CCCCS2(=O)=O)c2cccnc2c1O	371	29	200 nM	1.2	1	1.3	65	49	2	96 nM	1900 nM	400	1	2100 nM	1600 nM	> 1000 nM	44 nM	0.8	2.5	2 nM	EC50 [20]: 3 nM; Ratio EC50 [21]: 1; Ratio EC50 [22]: 1; fold change (FC) [23]: 3; EC50 [24]: 1.3 nM; Ratio EC50 [25]: 1; CC50 [26]: 3000 nM; EC50 [27]: 43 nM; Ratio EC50 [28]: 1; Ratio EC50 [29]: 8; Ratio EC50 [30]: 314; EC50 [31]: 41 nM; Ratio EC50 [32]: 21; Ratio EC50 [33]: 42; Ratio EC50 [34]: 5; Ratio EC50 [35]: 111; Ratio EC50 [36]: 39; Ratio EC50 [37]: 1
CN(c1c2c(c(O)c3ncccc13)C(=O)N(Cc1ccc(F)cc1)C2)S(C)(=O)=O	583	26	30 nM	0.9	1	0.5	50	51	1	19 nM	600 nM	457	1	4000 nM	320 nM	> 1000 nM	28 nM	0.5	1	2.1 nM	EC50 [20]: 1.5 nM; Ratio EC50 [21]: 1; Ratio EC50 [22]: 1; fold change (FC) [23]: 1.9; EC50 [24]: 0.9 nM; Ratio EC50 [25]: 1; CC50 [26]: 4000 nM; EC50 [27]: 15 nM; Ratio EC50 [28]: 2; Ratio EC50 [29]: 12; Ratio EC50 [30]: 250; EC50 [31]: 12 nM; Ratio EC50 [32]: 12; Ratio EC50 [33]: 32; Ratio EC50 [34]: 5; Ratio EC50 [35]: 104; Ratio EC50 [36]: 67; Ratio EC50 [37]: 1
